Results taken from patent US20160009693A1, “HERBICIDAL COMPOUNDS” (SYNGENTA LIMITED, priority 2013, published 2016).

Tested on: Solanum nigrum (SOLNI)
Experiment: Herbicidal glasshouse test, post-emergence, SOLNI
Type: in vivo
Details: applied at 1000 g/h, evaluated after 13 days

Row | Structure (SMILES) | POST Application SOLNI, percentage damage (five point scale)
1 | Cn1nnnc1NC(=O)c1nn(C)c(=O)n(Cc2ccccc2F)c1=O [Compound 1.058] | 5 (5=80-100%)
2 | Cn1nnnc1NC(=O)c1nn(C)c(=O)n(Cc2ccccc2Cl)c1=O [Compound 1.059] | 5 (5=80-100%)
3 | Cn1nnnc1NC(=O)c1nn(C)c(=O)n(Cc2ccccc2[N+](=O)[O-])c1=O [Compound 1.060] | 5 (5=80-100%)
4 | Cn1nnnc1NC(=O)c1nn(C)c(=O)n(Cc2cc(F)ccc2F)c1=O [Compound 1.061] | 5 (5=80-100%)
5 | Cn1nnnc1NC(=O)c1nn(C)c(=O)n(Cc2ccccc2C(F)(F)F)c1=O [Compound 1.062] | 5 (5=80-100%)

Tested on: Ipomoea hederacea (IPOHE)
Experiment: Herbicidal glasshouse test, post-emergence, IPOHE
Type: in vivo
Details: applied at 1000 g/h, evaluated after 13 days

Row | Structure (SMILES) | POST Application IPOHE, percentage damage (five point scale)
6 | Cn1nnnc1NC(=O)c1nn(C)c(=O)n(Cc2ccccc2F)c1=O [Compound 1.058] | 5 (5=80-100%)
7 | Cn1nnnc1NC(=O)c1nn(C)c(=O)n(Cc2ccccc2Cl)c1=O [Compound 1.059] | 5 (5=80-100%)
8 | Cn1nnnc1NC(=O)c1nn(C)c(=O)n(Cc2ccccc2[N+](=O)[O-])c1=O [Compound 1.060] | 5 (5=80-100%)
9 | Cn1nnnc1NC(=O)c1nn(C)c(=O)n(Cc2cc(F)ccc2F)c1=O [Compound 1.061] | 5 (5=80-100%)
10 | Cn1nnnc1NC(=O)c1nn(C)c(=O)n(Cc2ccccc2C(F)(F)F)c1=O [Compound 1.062] | 5 (5=80-100%)

Tested on: Setaria faberi (SETFA)
Experiment: Herbicidal glasshouse test, pre-emergence, SETFA
Type: in vivo
Details: applied at 1000 g/h, evaluated after 13 days

Row | Structure (SMILES) | PRE Application SETFA, percentage damage (five point scale)
11 | Cn1nnnc1NC(=O)c1nn(C)c(=O)n(Cc2ccccc2F)c1=O [Compound 1.058] | 5 (5=80-100%)
12 | Cn1nnnc1NC(=O)c1nn(C)c(=O)n(Cc2ccccc2Cl)c1=O [Compound 1.059] | 2 (2=20-39%)
13 | Cn1nnnc1NC(=O)c1nn(C)c(=O)n(Cc2ccccc2[N+](=O)[O-])c1=O [Compound 1.060] | 5 (5=80-100%)
14 | Cn1nnnc1NC(=O)c1nn(C)c(=O)n(Cc2cc(F)ccc2F)c1=O [Compound 1.061] | 5 (5=80-100%)
15 | Cn1nnnc1NC(=O)c1nn(C)c(=O)n(Cc2ccccc2C(F)(F)F)c1=O [Compound 1.062] | 5 (5=80-100%)

Tested on: Echinochloa crus-galli (ECHCG)
Experiment: Herbicidal glasshouse test, pre-emergence, ECHCG
Type: in vivo
Details: applied at 1000 g/h, evaluated after 13 days
How it was run: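 In this pre-emergence glasshouse test, ECHCG seeds sown in pots of standard soil were sprayed one day after sowing with the test material in acetone/water (50:50) containing 0.5% Tween 20. Plants were kept at 24/16° C., 14 hours light, 65% humidity, and watered twice daily. Percentage damage was rated after 13 days on a 1–5 scale.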

Row | Structure (SMILES) | PRE Application ECHCG, percentage damage (five point scale)
16 | Cn1nnnc1NC(=O)c1nn(C)c(=O)n(Cc2ccccc2F)c1=O [Compound 1.058] | 5 (5=80-100%)
17 | Cn1nnnc1NC(=O)c1nn(C)c(=O)n(Cc2ccccc2Cl)c1=O [Compound 1.059] | 5 (5=80-100%)
18 | Cn1nnnc1NC(=O)c1nn(C)c(=O)n(Cc2ccccc2[N+](=O)[O-])c1=O [Compound 1.060] | 5 (5=80-100%)
19 | Cn1nnnc1NC(=O)c1nn(C)c(=O)n(Cc2cc(F)ccc2F)c1=O [Compound 1.061] | 5 (5=80-100%)
20 | Cn1nnnc1NC(=O)c1nn(C)c(=O)n(Cc2ccccc2C(F)(F)F)c1=O [Compound 1.062] | 5 (5=80-100%)

Tested on: Alopecurus myosuroides (ALOMY)
Experiment: Herbicidal glasshouse test, pre-emergence, ALOMY
Type: in vivo
Details: applied at 1000 g/h, evaluated after 13 days

Row | Structure (SMILES) | PRE Application ALOMY, percentage damage (five point scale)
21 | Cn1nnnc1NC(=O)c1nn(C)c(=O)n(Cc2ccccc2F)c1=O [Compound 1.058] | 5 (5=80-100%)
22 | Cn1nnnc1NC(=O)c1nn(C)c(=O)n(Cc2ccccc2Cl)c1=O [Compound 1.059] | 5 (5=80-100%)
23 | Cn1nnnc1NC(=O)c1nn(C)c(=O)n(Cc2ccccc2[N+](=O)[O-])c1=O [Compound 1.060] | 5 (5=80-100%)
24 | Cn1nnnc1NC(=O)c1nn(C)c(=O)n(Cc2cc(F)ccc2F)c1=O [Compound 1.061] | 5 (5=80-100%)
25 | Cn1nnnc1NC(=O)c1nn(C)c(=O)n(Cc2ccccc2C(F)(F)F)c1=O [Compound 1.062] | 5 (5=80-100%)

Tested on: Ipomoea hederacea (IPOHE)
Experiment: Herbicidal glasshouse test, pre-emergence, IPOHE
Type: in vivo
Details: applied at 1000 g/h, evaluated after 13 days

Row | Structure (SMILES) | PRE Application IPOHE, percentage damage (five point scale)
26 | Cn1nnnc1NC(=O)c1nn(C)c(=O)n(Cc2ccccc2F)c1=O [Compound 1.058] | 5 (5=80-100%)
27 | Cn1nnnc1NC(=O)c1nn(C)c(=O)n(Cc2ccccc2Cl)c1=O [Compound 1.059] | 5 (5=80-100%)
28 | Cn1nnnc1NC(=O)c1nn(C)c(=O)n(Cc2ccccc2[N+](=O)[O-])c1=O [Compound 1.060] | 5 (5=80-100%)
29 | Cn1nnnc1NC(=O)c1nn(C)c(=O)n(Cc2cc(F)ccc2F)c1=O [Compound 1.061] | 5 (5=80-100%)
30 | Cn1nnnc1NC(=O)c1nn(C)c(=O)n(Cc2ccccc2C(F)(F)F)c1=O [Compound 1.062] | 5 (5=80-100%)

Tested on: Amaranthus retoflexus (AMARE)
Experiment: Herbicidal glasshouse test, pre-emergence, AMARE
Type: in vivo
Details: applied at 1000 g/h, evaluated after 13 days
How it was run: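 This pre-emergence glasshouse herbicide test used Amaranthus retoflexus sown in standard soil. After one day of cultivation, an aqueous spray made from the technical ingredient in 50:50 acetone/water with 0.5% Tween 20 was applied. Pots stayed at 24/16° C., 14 hours light, 65% humidity, with twice-daily watering. Damage was rated on a five point scale (1=0-19% up to 5=80-100%).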

Row | Structure (SMILES) | PRE Application AMARE, percentage damage (five point scale)
31 | Cn1nnnc1NC(=O)c1nn(C)c(=O)n(Cc2ccccc2F)c1=O [Compound 1.058] | 5 (5=80-100%)
32 | Cn1nnnc1NC(=O)c1nn(C)c(=O)n(Cc2ccccc2Cl)c1=O [Compound 1.059] | 5 (5=80-100%)
33 | Cn1nnnc1NC(=O)c1nn(C)c(=O)n(Cc2ccccc2[N+](=O)[O-])c1=O [Compound 1.060] | 5 (5=80-100%)
34 | Cn1nnnc1NC(=O)c1nn(C)c(=O)n(Cc2cc(F)ccc2F)c1=O [Compound 1.061] | 5 (5=80-100%)
35 | Cn1nnnc1NC(=O)c1nn(C)c(=O)n(Cc2ccccc2C(F)(F)F)c1=O [Compound 1.062] | 5 (5=80-100%)

Tested on: Setaria faberi (SETFA)
Experiment: Herbicidal glasshouse test, post-emergence, SETFA
Type: in vivo
Details: applied at 1000 g/h, evaluated after 13 days
How it was run: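 This post-emergence glasshouse herbicide test used potted Setaria faberi. Plants were cultivated for 8 days under controlled conditions (24/16° C. day/night, 14 hours light, 65% humidity) and then treated with an aqueous spray made from an acetone/water (50:50) solution containing 0.5% Tween 20. After 13 days of further growth with twice-daily watering, damage was rated on a five point scale (5=80-100%; 1=0-19%).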

Row | Structure (SMILES) | POST Application SETFA, percentage damage (five point scale)
36 | Cn1nnnc1NC(=O)c1nn(C)c(=O)n(Cc2ccccc2F)c1=O [Compound 1.058] | 5 (5=80-100%)
37 | Cn1nnnc1NC(=O)c1nn(C)c(=O)n(Cc2ccccc2Cl)c1=O [Compound 1.059] | 4 (4=60-79%)
38 | Cn1nnnc1NC(=O)c1nn(C)c(=O)n(Cc2ccccc2[N+](=O)[O-])c1=O [Compound 1.060] | 5 (5=80-100%)
39 | Cn1nnnc1NC(=O)c1nn(C)c(=O)n(Cc2cc(F)ccc2F)c1=O [Compound 1.061] | 5 (5=80-100%)
40 | Cn1nnnc1NC(=O)c1nn(C)c(=O)n(Cc2ccccc2C(F)(F)F)c1=O [Compound 1.062] | 5 (5=80-100%)

Tested on: Echinochloa crus-galli (ECHCG)
Experiment: Herbicidal glasshouse test, post-emergence, ECHCG
Type: in vivo
Details: applied at 1000 g/h, evaluated after 13 days
How it was run: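 In this post-emergence glasshouse test, barnyard grass (ECHCG) was cultivated for 8 days under controlled conditions (24/16° C. day/night, 14 hours light, 65% humidity). It was then sprayed with an aqueous solution of the technical compound in acetone / water (50:50) with 0.5% Tween 20. Plants were kept under the same conditions and watered twice daily. After 13 days, percentage damage was rated on a five point scale (5=80-100%; 1=0-19%).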

Row | Structure (SMILES) | POST Application ECHCG, percentage damage (five point scale)
41 | Cn1nnnc1NC(=O)c1nn(C)c(=O)n(Cc2ccccc2F)c1=O [Compound 1.058] | 5 (5=80-100%)
42 | Cn1nnnc1NC(=O)c1nn(C)c(=O)n(Cc2ccccc2Cl)c1=O [Compound 1.059] | 4 (4=60-79%)
43 | Cn1nnnc1NC(=O)c1nn(C)c(=O)n(Cc2ccccc2[N+](=O)[O-])c1=O [Compound 1.060] | 5 (5=80-100%)
44 | Cn1nnnc1NC(=O)c1nn(C)c(=O)n(Cc2cc(F)ccc2F)c1=O [Compound 1.061] | 5 (5=80-100%)
45 | Cn1nnnc1NC(=O)c1nn(C)c(=O)n(Cc2ccccc2C(F)(F)F)c1=O [Compound 1.062] | 5 (5=80-100%)

Tested on: Alopecurus myosuroides (ALOMY)
Experiment: Herbicidal glasshouse test, post-emergence, ALOMY
Type: in vivo
Details: applied at 1000 g/h, evaluated after 13 days

Row | Structure (SMILES) | POST Application ALOMY, percentage damage (five point scale)
46 | Cn1nnnc1NC(=O)c1nn(C)c(=O)n(Cc2ccccc2F)c1=O [Compound 1.058] | 5 (5=80-100%)
47 | Cn1nnnc1NC(=O)c1nn(C)c(=O)n(Cc2ccccc2Cl)c1=O [Compound 1.059] | 5 (5=80-100%)
48 | Cn1nnnc1NC(=O)c1nn(C)c(=O)n(Cc2ccccc2[N+](=O)[O-])c1=O [Compound 1.060] | 5 (5=80-100%)
49 | Cn1nnnc1NC(=O)c1nn(C)c(=O)n(Cc2cc(F)ccc2F)c1=O [Compound 1.061] | 5 (5=80-100%)
50 | Cn1nnnc1NC(=O)c1nn(C)c(=O)n(Cc2ccccc2C(F)(F)F)c1=O [Compound 1.062] | 5 (5=80-100%)

Tested on: Solanum nigrum (SOLNI)
Experiment: Herbicidal glasshouse test, pre-emergence, SOLNI
Type: in vivo
Details: applied at 1000 g/h, evaluated after 13 days
How it was run: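 This pre-emergence glasshouse herbicide test used Solanum nigrum sown in standard soil. One day after sowing, pots were sprayed with the compound in acetone/water (50:50) with 0.5% Tween 20. They were then grown at 24/16° C., with 14 hours light and 65% humidity, and watered twice daily. Percentage damage was scored after 13 days on a five point scale, where 5=80-100% and 1=0-19%.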

Row | Structure (SMILES) | PRE Application SOLNI, percentage damage (five point scale)
51 | Cn1nnnc1NC(=O)c1nn(C)c(=O)n(Cc2ccccc2F)c1=O [Compound 1.058] | 5 (5=80-100%)
52 | Cn1nnnc1NC(=O)c1nn(C)c(=O)n(Cc2ccccc2Cl)c1=O [Compound 1.059] | 5 (5=80-100%)
53 | Cn1nnnc1NC(=O)c1nn(C)c(=O)n(Cc2ccccc2[N+](=O)[O-])c1=O [Compound 1.060] | 5 (5=80-100%)
54 | Cn1nnnc1NC(=O)c1nn(C)c(=O)n(Cc2cc(F)ccc2F)c1=O [Compound 1.061] | 5 (5=80-100%)
55 | Cn1nnnc1NC(=O)c1nn(C)c(=O)n(Cc2ccccc2C(F)(F)F)c1=O [Compound 1.062] | 5 (5=80-100%)

Tested on: Amaranthus retoflexus (AMARE)
Experiment: Herbicidal glasshouse test, post-emergence, AMARE
Type: in vivo
Details: applied at 1000 g/h, evaluated after 13 days
How it was run: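 This post-emergence glasshouse test used AMARE plants raised in standard soil for 8 days under controlled conditions (24/16° C. day/night, 14 hours light, 65% humidity). Foliage was sprayed with formulated compound in acetone/water (50:50) containing 0.5% Tween 20. Plants were then watered twice daily, and after 13 days percentage damage was rated on a five point scale.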

Row | Structure (SMILES) | POST Application AMARE, percentage damage (five point scale)
56 | Cn1nnnc1NC(=O)c1nn(C)c(=O)n(Cc2ccccc2F)c1=O [Compound 1.058] | 5 (5=80-100%)
57 | Cn1nnnc1NC(=O)c1nn(C)c(=O)n(Cc2ccccc2Cl)c1=O [Compound 1.059] | 5 (5=80-100%)
58 | Cn1nnnc1NC(=O)c1nn(C)c(=O)n(Cc2ccccc2[N+](=O)[O-])c1=O [Compound 1.060] | 5 (5=80-100%)
59 | Cn1nnnc1NC(=O)c1nn(C)c(=O)n(Cc2cc(F)ccc2F)c1=O [Compound 1.061] | 5 (5=80-100%)
60 | Cn1nnnc1NC(=O)c1nn(C)c(=O)n(Cc2ccccc2C(F)(F)F)c1=O [Compound 1.062] | 5 (5=80-100%)
